Assay results as given in EPA's ToxRefDB 2.

Tests used:
[1] = system: rat; conditions: Combined chronic toxicity/carcinogenicity, fischer, Oral, [Not Specified], dose end: 123 week, group: systemic
[2] = system: rabbit; conditions: Prenatal developmental toxicity study, new zealand white, Oral, Gavage/Intubation, dose end: 19 GD
[3] = system: mouse; conditions: Carcinogenicity, cd1, Oral, Feed, dose end: 81 week, group: systemic
[4] = system: mouse; conditions: Sub-acute repeat dose toxicity, cd1, Oral, Feed, dose end: 5 week, group: systemic
[5] = system: dog; conditions: Chronic toxicity; beagle; Oral; Capsule; dose end: 52 week; group: systemic; systemic / in life observation / clinical signs / ataxia + systemic / in life observation / clinical signs / squinting + systemic / in life …
[6] = system: rat; conditions: Combined chronic toxicity/carcinogenicity, sprague dawley, Oral, Feed, dose end: 24 month, group: systemic
[7] = system: rat; conditions: Prenatal developmental toxicity study, wistar, Oral, Gavage/Intubation, dose end: 15 GD
[8] = system: rat; conditions: Prenatal developmental toxicity study, sprague dawley, Oral, Gavage/Intubation, dose end: 15 GD
[9] = system: dog; conditions: Chronic toxicity; beagle; Oral; Feed; dose end: 52 week; group: systemic; systemic / organ weight / kidney / absolute + systemic / organ weight / kidney / relative to body weight + systemic / pathology microscopic…
[10] = system: rat; conditions: Subchronic oral toxicity in rodents, sprague dawley, Feed, dose end: 90 day, group: systemic
[11] = system: rat; conditions: Multigenerational reproductive toxicity study, sprague dawley, Oral, Feed, dose end: 2 generation
[12] = system: mouse; conditions: Subchronic oral toxicity in rodents, cd1, Feed, dose end: 13 week, group: systemic
[13] = systemic / organ weight / liver / absolute + systemic / organ weight / liver / relative to body weight + systemic / urinalysis / specific …
[14] = group: developmental, developmental / developmental malformation / bone / fused + developmental / developmental malformation / bone / thoracic hemivertebra
[15] = group: maternal, systemic / in life observation / body weight / body weight gain + systemic / in life observation / clinical signs / convulsions + systemic…
[16] = systemic / organ weight / liver / relative to body weight + systemic / pathology microscopic / liver / fatty change
[17] = systemic / organ weight / liver / relative to body weight + systemic / pathology microscopic / liver / fatty change + systemic / pathology …
[18] = systemic / clinical chemistry / alanine aminotransferase (alt/sgpt) / alanine aminotransferase (alt/sgpt) + systemic / clinical chemistry / …
[19] = systemic / clinical chemistry / triglycerides / triglycerides
[20] = systemic / organ weight / adrenal gland / nos + systemic / organ weight / pituitary gland / nos + systemic / in life observation / clinical …
[21] = group: developmental, systemic / in life observation / body weight / fetal weight
[22] = group: maternal, systemic / in life observation / body weight / body weight gain + reproductive / reproductive performance / reproductive performance other…
[23] = group: developmental, developmental / developmental malformation / bone / full supernumerary + developmental / developmental malformation / general / crown-rump …
[24] = group: maternal, systemic / in life observation / body weight / body weight gain + systemic / in life observation / clinical signs / body surface staining + …
[25] = systemic / clinical chemistry / calcium / calcium
[26] = group: parental, systemic / organ weight / liver / absolute + systemic / organ weight / liver / relative to body weight + systemic / pathology microscopic / …
[27] = group: reproductive, reproductive / reproductive performance / gestational length / gestational length

With `C=CCC1=C(C)C(OC(=O)C2C(C=C(C)C)C2(C)C)CC1=O` (stereo not drawn) [Allethrin] the LOAEL ([1]; systemic / organ weight / liver / absolute + systemic / organ weight / liver / relative to body weight) was 24.5 mg/kg/day, the LEL [1, 13] was 5.9 mg/kg/day and the NEL [1, 13] was < 5.9 mg/kg/day. It also gave an NOAEL [1, 13] of 5.9 mg/kg/day, an LEL [2, 14] of 350 mg/kg/day and an LOAEL [2, 14] of 350 mg/kg/day. It also gave an NEL [2, 14] of 100 mg/kg/day, an NOAEL [2, 14] of 100 mg/kg/day and an LEL [2, 15] of 350 mg/kg/day. The LOAEL [2, 15] was 350 mg/kg/day, the NEL [2, 15] was 100 mg/kg/day and the NOAEL [2, 15] was 100 mg/kg/day. For the same compound, the NEL [3, 16] was 71.6 mg/kg/day, the NOAEL [3, 16] was 71.6 mg/kg/day and the LEL [3, 17] was 350 mg/kg/day. The LOAEL [3, 17] was 350 mg/kg/day, the LOAEL [4, 18] was 1520 mg/kg/day and the NOAEL [4, 18] was 438 mg/kg/day. For the same compound, the LEL [4, 19] was 14 mg/kg/day, the NEL [4, 19] was < 14 mg/kg/day and the LEL [5] was 20 mg/kg/day. The LOAEL [5] was 20 mg/kg/day, the NEL [5] was 6 mg/kg/day and the NOAEL [5] was 6 mg/kg/day.
With `FC(F)C(F)(F)OCC(Cn1cncn1)c1ccc(Cl)cc1Cl` (stereo not drawn) [Tetraconazole] the LEL ([6]; systemic / clinical chemistry / alanine aminotransferase (alt/sgpt) / alanine aminotransferase (alt/sgpt)) was 3.4 mg/kg/day, the LOAEL [6, 20] was 27.7 mg/kg/day and the NEL [6, 20] was 0.4 mg/kg/day. It also gave an NOAEL [6, 20] of 3.4 mg/kg/day, an LEL [7, 21] of 100 mg/kg/day and an LOAEL [7, 21] of 100 mg/kg/day. It also gave an NEL [7, 21] of 30 mg/kg/day, an NOAEL [7, 21] of 30 mg/kg/day and an LOAEL ([7]; group: maternal, systemic / in life observation / body weight / body weight gain) of 100 mg/kg/day. It also gave an LEL [7, 22] of 100 mg/kg/day, an NEL [7, 22] of 30 mg/kg/day and an NOAEL [7, 22] of 30 mg/kg/day. The LEL [8, 23] was 100 mg/kg/day, the LOAEL [8, 23] was 100 mg/kg/day and the NEL [8, 23] was 22.5 mg/kg/day. For the same compound, the NOAEL [8, 23] was 22.5 mg/kg/day, the LEL [8, 24] was 22.5 mg/kg/day and the LOAEL [8, 24] was > 100 mg/kg/day. The NEL [8, 24] was 5 mg/kg/day, the NOAEL [8, 24] was ≥ 100 mg/kg/day and the LEL [9] was 2.95 mg/kg/day. It also gave an LOAEL [9] of 2.95 mg/kg/day, an NEL [9] of 0.73 mg/kg/day and an NOAEL [9] of 0.73 mg/kg/day. For the same compound, the LEL [10, 25] was 0.7 mg/kg/day, the NEL [10, 25] was < 0.7 mg/kg/day and the NOAEL ([10]; systemic / clinical chemistry / calcium / calcium + systemic / in life observation / body weight / body weight gain + systemic / organ …) was 4.1 mg/kg/day. The LOAEL ([10]; systemic / in life observation / body weight / body weight gain + systemic / organ weight / liver / relative to body weight + systemic / …) was 23.9 mg/kg/day, the LOAEL ([11]; group: offspring, systemic / in life observation / body weight / offspring (pup) weight + systemic / organ weight / liver / relative to body weight) was 35.5 mg/kg/day and the NOAEL ([11]; group: offspring, systemic / in life observation / body weight / offspring (pup) weight + systemic / organ weight / liver / relative to body weight + systemic…) was 4.9 mg/kg/day. For the same compound, the LEL ([11]; group: offspring, systemic / organ weight / liver / relative to body weight) was 5.9 mg/kg/day, the NEL ([11]; group: offspring, systemic / organ weight / liver / relative to body weight + systemic / in life observation / body weight / offspring (pup) weight + systemic…) was 0.8 mg/kg/day and the LOAEL [11, 26] was 35.5 mg/kg/day. The NOAEL [11, 26] was 4.9 mg/kg/day, the LEL ([11]; group: parental, systemic / organ weight / liver / relative to body weight) was 6 mg/kg/day and the NEL ([11]; group: parental, systemic / organ weight / liver / relative to body weight + systemic / in life observation / body weight / body weight gain + systemic / in …) was 0.8 mg/kg/day. The LEL [11, 27] was 5.9 mg/kg/day, the LOAEL [11, 27] was 5.9 mg/kg/day and the NEL [11, 27] was 0.8 mg/kg/day. For the same compound, the NOAEL [11, 27] was 0.8 mg/kg/day, the LOAEL [12, 18] was 20 mg/kg/day and the NOAEL [12, 18] was 4 mg/kg/day. For the same compound, the LEL ([12]; systemic / pathology microscopic / liver / hypertrophy + systemic / pathology microscopic / liver / degeneration) was 16 mg/kg/day and the NEL ([12]; systemic / pathology microscopic / liver / hypertrophy + systemic / pathology microscopic / liver / degeneration + systemic / clinical …) was 4 mg/kg/day.
